Experimental data as given in the NIST ThermoML archive (doi:10.1016/j.jct.2016.07.011).
± gives the expanded uncertainty stated by the source.

Details: Liquid; for mass density / viscosity: 101.33 kPa; for mass density: Vibrating tube method; for viscosity: Falling or rolling sphere viscometry; for vapor or sublimation pressure: Ebulliometric method (Recirculating still)

OCC(F)(F)C(F)(F)C(F)(F)C(F)F [2,2,3,3,4,4,5,5-octafluoro-1-pentanol]
Details | mass density [kg/m3] | vapor or sublimation pressure [kPa] | viscosity [mPa·s]
293.15 K | 1674.2 ± 2 | – | –
295.65 K | – | – | 13.11 ± 0.18
297.55 K | – | – | 12.16 ± 0.18
300.15 K | – | – | 10.64 ± 0.17
301.55 K | 1667 ± 2 | – | –
302.15 K | – | – | 9.897 ± 0.17
304.15 K | – | – | 8.739 ± 0.16
306.15 K | 1659 ± 2 | – | 8.04 ± 0.16
307.65 K | – | – | 7.416 ± 0.15
309.05 K | 1655.2 ± 2 | – | –
309.15 K | – | – | 7.072 ± 0.15
311.65 K | – | – | 6.29 ± 0.15
312.65 K | 1649.2 ± 2 | – | –
313.15 K | – | – | 5.94 ± 0.15
316.15 K | 1643 ± 2 | – | –
318.15 K | – | – | 4.822 ± 0.15
319.35 K | 1636.4 ± 2 | – | –
323.15 K | – | – | 3.855 ± 0.14
323.25 K | 1630.4 ± 2 | – | –
327.05 K | 1623.2 ± 2 | – | –
328.15 K | – | – | 3.298 ± 0.14
330.65 K | 1617.8 ± 2 | – | –
333.15 K | – | – | 2.782 ± 0.14
334.35 K | 1609.6 ± 2 | – | –
338.25 K | 1603.8 ± 2 | – | –
342.25 K | 1596 ± 2 | – | –
413.25 K | – | 101.3 ± 10 | –
413.57 K | – | 101.3 ± 10 | –

OCC(F)(F)C(F)F [2,2,3,3-tetrafluoro-1-propanol]
Details | mass density [kg/m3] | vapor or sublimation pressure [kPa] | viscosity [mPa·s]
293.15 K | 1493.2 ± 2 | – | –
295.65 K | – | – | 5.029 ± 0.15
298.65 K | – | – | 4.489 ± 0.14
300.15 K | – | – | 4.274 ± 0.14
301.55 K | 1482.8 ± 2 | – | –
302.15 K | – | – | 3.794 ± 0.14
304.15 K | – | – | 3.595 ± 0.14
306.15 K | 1474.2 ± 2 | – | 3.26 ± 0.14
307.65 K | – | – | 3.067 ± 0.14
309.05 K | 1468.6 ± 2 | – | –
309.15 K | – | – | 2.954 ± 0.14
311.65 K | – | – | 2.703 ± 0.14
312.65 K | 1460.2 ± 2 | – | –
313.15 K | – | – | 2.568 ± 0.14
316.15 K | 1454.2 ± 2 | – | –
318.15 K | – | – | 2.153 ± 0.14
319.35 K | 1447.6 ± 2 | – | –
323.15 K | – | – | 1.848 ± 0.14
323.25 K | 1441.8 ± 2 | – | –
327.05 K | 1434 ± 2 | – | –
328.15 K | – | – | 1.623 ± 0.14
330.65 K | 1427.4 ± 2 | – | –
333.15 K | – | – | 1.408 ± 0.14
334.35 K | 1416.8 ± 2 | – | –
338.25 K | 1409 ± 2 | – | –
342.25 K | 1401 ± 2 | – | –
382.28 K | – | 101.3 ± 10 | –

CO [methanol]
Details | vapor or sublimation pressure [kPa]
337.45 K | 101.3 ± 10
